In patent US20230062119A1, “USE OF BIOMARKERS IN IDENTIFYING PATIENTS THAT WILL BE RESPONSIVE TO TREATMENT WITH A PRMT5 INHIBITOR” (Merck Sharp & Dohme LLC, priority 2019, published 2023) one finds EC50 data, which are given here for 17 molecules.

Each structure is given as a SMILES string. pEC50: −log10 of the molar value.

As a reminder, the pEC50 is the negative decadic logarithm of the EC50, by convention in mol/L.

T1 sequence (O14744 whole entry): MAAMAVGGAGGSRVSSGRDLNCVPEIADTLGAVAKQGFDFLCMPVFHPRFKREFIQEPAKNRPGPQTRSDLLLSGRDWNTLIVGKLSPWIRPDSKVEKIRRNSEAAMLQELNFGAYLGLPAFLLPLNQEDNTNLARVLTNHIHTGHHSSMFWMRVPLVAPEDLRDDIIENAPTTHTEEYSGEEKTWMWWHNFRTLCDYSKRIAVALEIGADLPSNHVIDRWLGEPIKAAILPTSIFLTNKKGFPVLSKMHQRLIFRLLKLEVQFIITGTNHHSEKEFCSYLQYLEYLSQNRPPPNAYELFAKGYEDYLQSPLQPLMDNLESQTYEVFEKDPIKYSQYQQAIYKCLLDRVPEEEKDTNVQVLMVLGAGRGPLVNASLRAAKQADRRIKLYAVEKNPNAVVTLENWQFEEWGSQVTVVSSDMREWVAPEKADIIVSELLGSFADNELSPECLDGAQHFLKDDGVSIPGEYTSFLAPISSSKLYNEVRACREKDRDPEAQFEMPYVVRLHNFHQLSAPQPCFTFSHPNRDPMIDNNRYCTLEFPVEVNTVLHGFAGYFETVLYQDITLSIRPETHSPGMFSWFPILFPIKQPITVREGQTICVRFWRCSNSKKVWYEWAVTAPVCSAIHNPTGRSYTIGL
T1 sequence (Q9BQA1 whole entry partner): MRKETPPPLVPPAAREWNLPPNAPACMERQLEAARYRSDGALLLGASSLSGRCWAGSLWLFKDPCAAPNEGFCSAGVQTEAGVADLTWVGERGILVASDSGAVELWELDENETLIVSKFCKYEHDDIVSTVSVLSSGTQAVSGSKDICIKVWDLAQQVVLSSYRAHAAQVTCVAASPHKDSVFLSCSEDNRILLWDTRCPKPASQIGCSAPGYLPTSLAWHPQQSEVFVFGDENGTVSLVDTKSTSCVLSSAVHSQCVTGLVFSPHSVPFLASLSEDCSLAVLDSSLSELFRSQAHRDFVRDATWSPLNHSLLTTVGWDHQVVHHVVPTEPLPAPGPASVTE

One test addresses T1, Full-length (FL)-PRMT5-MEP50 enzyme complex (Homo sapiens, UniProt O14744).
T1 construct: Full-length (FL)-PRMT5-MEP50 enzyme complex (recombinant proteins from baculovirus-transfected Sf21 cells: FL-PRMT5; MW=73837 kDa and FL-MEP50; MW=38614); made in house; host or cells: baculovirus-transfected Sf21 insect cells
Nature of the test: PRMT5-MEP50 Enzyme Methylation Assay. Format: biochemical. The conditions noted are these: one EC50: 4 parameters single site sigmoidal model; EC50 1: first value of 7 parameters biphasic model; 1.0 nM PRMT5-MEP50, 75 nM biotinylated peptide, 15 μM SAM; read-out: Enzyme Methylation Assay (EC50 or EC50 1). In a few lines: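 Compound was pre-incubated 60 min at 37°C with 1.0 nM enzyme and 15 μM SAM (final) in 50 mM Bicine pH 8.0, then 75 nM biotinylated H4R3(Me1) peptide was added and reacted 150 min; twenty-point 1:2 titration from 100000 nM, 1% DMSO. Formic acid quench; SAMDI mass spectrometry measured Me1-to-Me2 conversion, EC50 by 4- or 7-parameter regression.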
Take `Cc1cn([C@@H]2O[C@@H]3[C@@H](Oc4ccc5cc(Br)c(N)nc5c4)CC[C@]3(O)[C@H]2O)c2ncnc(N)c12` [Example 60, (2R,3R,3aS,6S,6aR)-6-((2-amino-3-bromoquinolin-7-yl)oxy)-2-(4-amino-5-methyl-7H-pyrrolo[2,3-d]pyrimidin-7-yl)hexahydro-3aH-cyclopenta[b]furan-3,3a-diol]: the pEC50 is 9.40.
On the same count and under the same terms, with `Cc1nc(N)c2ccn([C@@H]3O[C@@H]4[C@H](Cc5ccc6cc(Br)c(N)nc6c5)CC[C@]4(O)[C@H]3O)c2n1` [Example 61, (2R,3R,3aS,6S,6aR)-2-(4-amino-2-methyl-7H-pyrrolo[2,3-d]pyrimidin-7-yl)-6-((2-amino-3-bromoquinolin-7-yl)methyl)hexahydro-3aH-cyclopenta[b]furan-3,3a-diol] the figure was 9.30; with `Cc1cn([C@@H]2O[C@@H]3[C@H](Cc4ccc5cc(F)c(N)nc5c4)CC[C@]3(O)[C@H]2O)c2ncnc(N)c12` [Example 62, (2R,3R,3aS,6S,6aR)-6-((2-amino-3-fluoroquinolin-7-yl)methyl)-2-(4-amino-5-methyl-7H-pyrrolo[2,3-d]pyrimidin-7-yl)hexahydro-3aH-cyclopenta[b]furan-3,3a-diol 2,2,2-trifluoroacetate], 9.30; with `Cc1nc(N)c2ccn([C@@H]3O[C@@H]4[C@@H](Oc5ccc6cc(Br)c(N)nc6c5)CC[C@]4(O)[C@H]3O)c2n1` [Example 63, (2R,3R,3aS,6S,6aR)-2-(4-amino-2-methyl-7H-pyrrolo[2,3-d]pyrimidin-7-yl)-6-((2-amino-3-bromoquinolin-7-yl)oxy)hexahydro-3aH-cyclopenta[b]furan-3,3a-diol], 9.40.
Take `Cc1cn([C@@H]2O[C@@H]3[C@H](Cc4ccc5cc(Cl)c(N)nc5c4)CC[C@]3(O)[C@H]2O)c2ncnc(N)c12` [Example 66, (2R,3R,3aS,6S,6aR)-6-((2-amino-3-chloroquinolin-7-yl)methyl)-2-(4-amino-5-methyl-7H-pyrrolo[2,3-d]pyrimidin-7-yl)hexahydro-3aH-cyclopenta[b]furan-3,3a-diol]: the pEC50 was 9.52.
Same read-out and setting: as for `Nc1nc2cc(C[C@@H]3CC[C@@]4(O)[C@@H]3O[C@@H](n3ccc5c(N)ncnc53)[C@@H]4O)ccc2cc1Cl` [Example 67, (2R,3R,3aS,6S,6aR)-6-((2-amino-3-chloroquinolin-7-yl)methyl)-2-(4-amino-7H-pyrrolo[2,3-d]pyrimidin-7-yl)hexahydro-3aH-cyclopenta[b]furan-3,3a-diol], the figure is 9.10; as for `Nc1nc2cc(C[C@@H]3CC[C@@]4(O)[C@@H]3O[C@@H](n3cc(F)c5c(N)ncnc53)[C@@H]4O)ccc2cc1Cl` [Example 68, (2R,3R,3aS,6S,6aR)-6-((2-amino-3-chloroquinolin-7-yl)methyl)-2-(4-amino-5-fluoro-7H-pyrrolo[2,3-d]pyrimidin-7-yl)hexahydro-3aH-cyclopenta[b]furan-3,3a-diol], 9.30; as for `Cc1cn([C@@H]2O[C@@H]3[C@H](Cc4ccc5cc(Br)c(N)nc5c4)CC[C@]3(O)[C@H]2O)c2ncnc(N)c12` [Example 70, (2R,3R,3aS,6S,6aR)-6-((2-amino-3-bromoquinolin-7-yl)methyl)-2-(4-amino-5-methyl-7H-pyrrolo[2,3-d]pyrimidin-7-yl)hexahydro-3aH-cyclopenta[b]furan-3,3a-diol 2,2,2-trifluoroacetate], 9.40.
Turning to `Nc1nc2cc(O[C@H]3CC[C@@]4(O)[C@@H]3O[C@@H](n3ccc5c(N)ncnc53)[C@@H]4O)ccc2cc1F` [Example 71, (2R,3R,3aS,6S,6aR)-6-((2-amino-3-fluoroquinolin-7-yl)oxy)-2-(4-amino-7H-pyrrolo[2,3-d]pyrimidin-7-yl)hexahydro-3aH-cyclopenta[b]furan-3,3a-diol], the pEC50 is 8.80.
Same read-out and setting: with `Nc1nc2cc(O[C@H]3CC[C@@]4(O)[C@@H]3O[C@@H](n3ccc5c(N)ncnc53)[C@@H]4O)ccc2cc1Cl` [Example 72, (2R,3R,3aS,6S,6aR)-6-((2-amino-3-chloroquinolin-7-yl)oxy)-2-(4-amino-7H-pyrrolo[2,3-d]pyrimidin-7-yl)hexahydro-3aH-cyclopenta[b]furan-3,3a-diol] the figure was 9.05.
In the case of `Nc1nc2cc(O[C@H]3CC[C@@]4(O)[C@@H]3O[C@@H](n3cc(F)c5c(N)ncnc53)[C@@H]4O)ccc2cc1F` [Example 73, (2R,3R,3aS,6S,6aR)-6-((2-amino-3-fluoroquinolin-7-yl)oxy)-2-(4-amino-5-fluoro-7H-pyrrolo[2,3-d]pyrimidin-7-yl)hexahydro-3aH-cyclopenta[b]furan-3,3a-diol], the pEC50 was 9.40.
As to `Nc1nc2cc(O[C@H]3CC[C@@]4(O)[C@@H]3O[C@@H](n3cc(F)c5c(N)ncnc53)[C@@H]4O)ccc2cc1Cl` [Example 74, (2R,3R,3aS,6S,6aR)-6-((2-amino-3-chloroquinolin-7-yl)oxy)-2-(4-amino-5-fluoro-7H-pyrrolo[2,3-d]pyrimidin-7-yl)hexahydro-3aH-cyclopenta[b]furan-3,3a-diol], the pEC50 was 9.52.
As for `Nc1ncnc2c1ccn2[C@@H]1O[C@@H]2[C@@H](Oc3ccc4cc5c(nc4c3)NCC5)CC[C@]2(O)[C@H]1O` [Example 75, (2R,3R,3aS,6S,6aR)-2-(4-amino-7H-pyrrolo[2,3-d]pyrimidin-7-yl)-6-((2,3-dihydro-1H-pyrrolo[2,3-b]quinolin-7-yl)oxy)hexahydro-3aH-cyclopenta[b]furan-3,3a-diol], the pEC50 was 9.15.
As for `Nc1nc2cc(O[C@H]3CC[C@@]4(O)[C@@H]3O[C@@H](n3ccc5c(CO)ncnc53)[C@@H]4O)ccc2cc1Br` [Example 77, (2R,3R,3aS,6S,6aR)-6-[(2-amino-3-bromoquinolin-7-yl)oxy]-2-[4-(hydroxymethyl)-7H-pyrrolo[2,3-d]pyrimidin-7-yl]hexahydro-3aH-cyclopenta[b]furan-3,3a-diol], the pEC50 was 8.70.
As to `CC(C)(O)c1ncnc2c1ccn2[C@@H]1O[C@@H]2[C@@H](Oc3ccc4cc(Br)c(N)nc4c3)CC[C@]2(O)[C@H]1O` [Example 78, (2R,3R,3aS,6S,6aR)-6-[(2-amino-3-bromoquinolin-7-yl)oxy]-2-[4-(2-hydroxypropan-2-yl)-7H-pyrrolo[2,3-d]pyrimidin-7-yl]hexahydro-3aH-cyclopenta[b]furan-3,3a-diol], the pEC50 was 7.88.
On the same count and under the same terms, as for `Cc1nc(C)c2ccn([C@@H]3O[C@@H]4[C@@H](Oc5ccc6cc(Br)c(N)nc6c5)CC[C@]4(O)[C@H]3O)c2n1` [Example 80, (2R,3R,3aS,6S,6aR)-6-((2-amino-3-bromoquinolin-7-yl)oxy)-2-(2,4-dimethyl-7H-pyrrolo[2,3-d]pyrimidin-7-yl)hexahydro-3aH-cyclopenta[b]furan-3,3a-diol 2,2,2-trifluoroacetate], the figure is 8.54.
Take `Cc1nc(C)c2ccn([C@@H]3O[C@@H]4[C@H](Cc5ccc6cc(Br)c(N)nc6c5)CC[C@]4(O)[C@H]3O)c2n1` [Example 81, (2R,3R,3aS,6S,6aR)-6-((2-amino-3-bromoquinolin-7-yl)methyl)-2-(2,4-dimethyl-7H-pyrrolo[2,3-d]pyrimidin-7-yl)hexahydro-3aH-cyclopenta[b]furan-3,3a-diol]: the pEC50 was 9.15.

Still in this test, the particulars now being: second EC50 of 7 parameters biphasic model; 1.0 nM PRMT5-MEP50, 75 nM biotinylated peptide, 15 μM SAM; read-out: Enzyme Methylation Assay (EC50 2).
With `Nc1nc2cc(O[C@H]3CC[C@@]4(O)[C@@H]3O[C@@H](n3ccc5c(CO)ncnc53)[C@@H]4O)ccc2cc1Br` [Example 77, (2R,3R,3aS,6S,6aR)-6-[(2-amino-3-bromoquinolin-7-yl)oxy]-2-[4-(hydroxymethyl)-7H-pyrrolo[2,3-d]pyrimidin-7-yl]hexahydro-3aH-cyclopenta[b]furan-3,3a-diol], the pEC50 is 6.61.
